Source: US20260078135A1, “POLYCYCLIC QUINAZOLINES FOR INHIBITION OF ERBB2” (Enliven Inc., priority 2022, published 2026)
Counter-ions that a name gives are not always drawn.

Key:
[1] = target: T1, phosphorylated ERBB2 (pERBB2) (Homo sapiens, UniProt P04626); test: Detection of phosphorylated ERBB2 (pERBB2) by ELISA in BT-474 cells; format: cell-based; details: four hour incubation
T1 construct: endogenous in cells; host or cells: BT-474
Method in brief: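 BT-474 cells were treated with compounds (fourfold dilutions, 10 μM to 0.01 nM final) for 4 h at 37 °C, then lysed. pERBB2 in lysates was quantified by ELISA with an HRP anti-phosphotyrosine detection antibody and TMB read at 450 nm; % relative activity was normalized to no-cell and 0.1% DMSO controls.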

Ba/F3 ERBB2 YVMA = Ba/F3 ERBB2 YVMA (Homo sapiens, UniProt P04626, DUP772-775, cells depend on it); test: Cell viability assay (CellTiter Glo), Ba/F3 cells engineered to express ERBB2 YVMA; format: cell-based, mouse; details: Ba/F3 cells expressing human ERBB2 YVMA mutant, 72 hours, read-out: Ba/F3 ERBB2 YVMA, IC50
Ba/F3 ERBB2 YVMA, sequence (P04626 with tags, fused parts or gaps DUP772-775): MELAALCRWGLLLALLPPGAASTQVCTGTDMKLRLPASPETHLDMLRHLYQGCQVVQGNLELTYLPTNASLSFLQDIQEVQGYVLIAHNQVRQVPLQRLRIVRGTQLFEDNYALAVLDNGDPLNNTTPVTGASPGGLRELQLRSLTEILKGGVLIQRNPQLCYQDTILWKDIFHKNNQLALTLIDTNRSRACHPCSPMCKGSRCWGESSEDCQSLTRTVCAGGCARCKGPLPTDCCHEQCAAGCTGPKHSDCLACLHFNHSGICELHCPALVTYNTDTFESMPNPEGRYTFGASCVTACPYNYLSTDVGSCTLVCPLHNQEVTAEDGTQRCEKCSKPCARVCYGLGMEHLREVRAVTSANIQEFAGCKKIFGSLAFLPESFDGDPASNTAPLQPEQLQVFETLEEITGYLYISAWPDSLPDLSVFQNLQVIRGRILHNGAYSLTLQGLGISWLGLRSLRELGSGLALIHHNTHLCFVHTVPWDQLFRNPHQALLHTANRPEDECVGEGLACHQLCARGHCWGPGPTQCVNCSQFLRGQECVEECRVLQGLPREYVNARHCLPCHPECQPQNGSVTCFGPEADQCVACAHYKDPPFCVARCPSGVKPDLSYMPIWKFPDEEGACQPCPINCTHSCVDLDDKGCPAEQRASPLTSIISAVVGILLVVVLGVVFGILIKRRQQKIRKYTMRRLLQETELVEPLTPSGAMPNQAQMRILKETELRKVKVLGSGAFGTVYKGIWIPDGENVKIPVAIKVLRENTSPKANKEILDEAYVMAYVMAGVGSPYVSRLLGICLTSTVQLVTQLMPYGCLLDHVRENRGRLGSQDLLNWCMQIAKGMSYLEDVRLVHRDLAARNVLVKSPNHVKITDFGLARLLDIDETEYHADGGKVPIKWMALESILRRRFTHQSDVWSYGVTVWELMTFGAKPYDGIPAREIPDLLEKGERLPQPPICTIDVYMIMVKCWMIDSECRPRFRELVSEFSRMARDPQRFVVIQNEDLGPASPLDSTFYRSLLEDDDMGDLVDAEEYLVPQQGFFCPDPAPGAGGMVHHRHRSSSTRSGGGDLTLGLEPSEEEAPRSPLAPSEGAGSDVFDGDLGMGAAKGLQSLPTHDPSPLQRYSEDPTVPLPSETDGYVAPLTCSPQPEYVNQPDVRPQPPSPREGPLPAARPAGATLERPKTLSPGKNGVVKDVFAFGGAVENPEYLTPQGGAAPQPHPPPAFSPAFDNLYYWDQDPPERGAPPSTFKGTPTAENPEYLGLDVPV
Method in brief: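 Ba/F3 cells (IL-3-independent via stable retroviral human ERBB2 YVMA) seeded 3000/well and given compound from about 10 μM to 0.51 nM in three-fold steps, DMSO ≤0.1%, 72 h at 37° C. Viability by CellTiter Glo luminescence, normalized to DMSO and media-only controls. Sigmoidal nonlinear fit.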

[2] = target: T2, phosphorylated EGFR (pEGFR) (Homo sapiens, UniProt P00533); test: Detection of phosphorylated EGFR (pEGFR) by AlphaLISA in EGF-stimulated A431 cells; format: cell-based; details: A431 cells (10% FBS), 4 hours incubation, EGF 30 ng/mL for 10 minutes
T2 construct: performed to measure phosphorylated EGFR levels using A431 cells (10% FBS); endogenous in cells; host or cells: A431
T2 sequence (P00533 25-1210): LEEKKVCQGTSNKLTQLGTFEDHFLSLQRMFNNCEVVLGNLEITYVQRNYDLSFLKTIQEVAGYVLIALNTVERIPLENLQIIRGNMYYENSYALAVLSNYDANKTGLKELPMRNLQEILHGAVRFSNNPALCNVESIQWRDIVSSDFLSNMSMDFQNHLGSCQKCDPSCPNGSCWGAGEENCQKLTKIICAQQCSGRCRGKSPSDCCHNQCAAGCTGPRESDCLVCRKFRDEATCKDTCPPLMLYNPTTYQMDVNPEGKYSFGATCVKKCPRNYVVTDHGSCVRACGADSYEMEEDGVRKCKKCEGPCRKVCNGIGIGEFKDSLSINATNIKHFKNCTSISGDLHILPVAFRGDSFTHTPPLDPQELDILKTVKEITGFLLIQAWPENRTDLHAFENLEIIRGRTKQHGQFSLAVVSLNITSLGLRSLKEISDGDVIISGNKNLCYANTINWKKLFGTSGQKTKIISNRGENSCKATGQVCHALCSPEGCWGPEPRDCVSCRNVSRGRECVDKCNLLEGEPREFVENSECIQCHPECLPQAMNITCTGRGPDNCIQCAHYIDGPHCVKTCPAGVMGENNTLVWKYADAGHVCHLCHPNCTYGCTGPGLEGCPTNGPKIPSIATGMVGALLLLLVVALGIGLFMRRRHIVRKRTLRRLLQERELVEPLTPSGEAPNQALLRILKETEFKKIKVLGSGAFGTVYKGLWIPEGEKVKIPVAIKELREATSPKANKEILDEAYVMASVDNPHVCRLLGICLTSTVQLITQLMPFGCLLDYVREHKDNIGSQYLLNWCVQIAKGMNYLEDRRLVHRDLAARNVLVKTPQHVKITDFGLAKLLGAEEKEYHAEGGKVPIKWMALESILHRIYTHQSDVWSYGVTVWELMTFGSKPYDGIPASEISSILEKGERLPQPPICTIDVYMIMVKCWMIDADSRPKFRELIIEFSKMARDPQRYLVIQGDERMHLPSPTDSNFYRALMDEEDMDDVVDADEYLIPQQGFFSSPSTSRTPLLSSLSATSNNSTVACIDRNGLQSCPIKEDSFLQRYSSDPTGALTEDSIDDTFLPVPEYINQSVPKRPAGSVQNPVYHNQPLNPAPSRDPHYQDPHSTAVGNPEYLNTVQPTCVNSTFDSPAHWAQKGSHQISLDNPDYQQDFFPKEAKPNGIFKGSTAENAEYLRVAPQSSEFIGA
Method in brief: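 A431 cells in 10% FBS were preincubated with compound for 4 h at 37 °C, then stimulated with 30 ng/mL EGF for 10 min and lysed. pEGFR read by AlphaLISA. % inhibition normalised to DMSO and staurosporine controls; IC50 from four-parameter curve fit.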

T1 sequence (P04626 23-1255): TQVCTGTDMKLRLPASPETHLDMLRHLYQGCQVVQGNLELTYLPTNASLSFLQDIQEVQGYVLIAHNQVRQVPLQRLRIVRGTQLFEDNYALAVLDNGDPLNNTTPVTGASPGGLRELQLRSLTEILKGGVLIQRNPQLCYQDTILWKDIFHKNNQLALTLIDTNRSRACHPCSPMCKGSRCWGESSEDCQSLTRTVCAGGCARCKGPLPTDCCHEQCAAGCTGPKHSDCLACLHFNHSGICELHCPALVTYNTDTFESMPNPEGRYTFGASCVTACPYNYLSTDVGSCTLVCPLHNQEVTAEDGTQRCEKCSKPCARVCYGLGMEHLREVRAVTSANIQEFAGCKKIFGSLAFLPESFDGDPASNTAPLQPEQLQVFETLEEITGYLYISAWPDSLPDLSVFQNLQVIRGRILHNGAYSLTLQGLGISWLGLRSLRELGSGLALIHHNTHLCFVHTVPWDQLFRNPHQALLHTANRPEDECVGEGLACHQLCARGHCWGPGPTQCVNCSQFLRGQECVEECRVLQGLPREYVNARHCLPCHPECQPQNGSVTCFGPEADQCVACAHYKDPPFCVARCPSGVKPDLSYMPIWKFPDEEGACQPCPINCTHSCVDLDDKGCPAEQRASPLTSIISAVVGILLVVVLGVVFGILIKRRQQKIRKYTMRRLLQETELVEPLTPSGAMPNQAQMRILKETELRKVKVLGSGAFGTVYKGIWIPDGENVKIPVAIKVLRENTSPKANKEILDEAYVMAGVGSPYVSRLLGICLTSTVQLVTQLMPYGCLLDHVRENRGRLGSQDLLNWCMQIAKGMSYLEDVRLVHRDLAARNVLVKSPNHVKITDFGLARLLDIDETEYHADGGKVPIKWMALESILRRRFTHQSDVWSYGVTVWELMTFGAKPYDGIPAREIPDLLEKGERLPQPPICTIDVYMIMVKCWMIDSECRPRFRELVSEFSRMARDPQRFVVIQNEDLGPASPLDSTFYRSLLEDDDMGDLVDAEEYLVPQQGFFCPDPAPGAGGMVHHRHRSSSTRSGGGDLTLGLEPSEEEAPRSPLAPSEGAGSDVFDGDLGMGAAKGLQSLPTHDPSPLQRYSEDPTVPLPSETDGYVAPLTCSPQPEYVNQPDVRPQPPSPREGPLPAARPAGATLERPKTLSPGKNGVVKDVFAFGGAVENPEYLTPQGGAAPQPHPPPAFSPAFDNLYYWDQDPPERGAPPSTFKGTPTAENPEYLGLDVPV

SMILES | IC50 [1] [nM] | GI50 (Ba/F3 ERBB2 YVMA) [nM] | IC50 [2] [nM]
Cc1cc(Nc2ncnc3ccc4c(c23)OC[C@H]2CN(C(=O)/C=C/CN(C)C)CCN42)c(F)cc1Oc1ccn2ncnc2c1 [Compound 116, (R,E)-1-(4-((4-([1,2,4]triazolo[1,5-a]pyridin-7-yloxy)-2-fluoro-5-methylphenyl)amino)-6a,7,9,10-tetrahydropyrazino[1′,2′:4,5][1,4]oxazino[2,3-f]quinazolin-8(6H)-yl)-4-(dimethylamino)but-2-en-1-one] | 10.9 | 14 | 572
Cc1cc(Nc2ncnc3cc4c(nc23)N2CCN(C(=O)/C=C/CN(C)C)C[C@H]2CO4)ccc1Oc1ccn2ncnc2c1 [Compound 16, (S,E)-1-(11-((4-([1,2,4]triazolo[1,5-a]pyridin-7-yloxy)-3-methylphenyl)amino)-1,2,4a,5-tetrahydropyrazino[1,2-d]pyrimido[4′,5′:5,6]pyrido[3,2-b][1,4]oxazin-3(4H)-yl)-4-(dimethylamino)but-2-en-1-one] | 5.8 | 1.47 | 130
C=CC(=O)N1CCN2c3nc4c(Nc5ccc(Oc6ccn7ncnc7c6)c(C)c5)ncnc4cc3OC[C@@H]2C1 [Compound 1, (S)-1-(11-((4-([1,2,4]triazolo[1,5-a]pyridin-7-yloxy)-3-methylphenyl)amino)-1,2,4a,5-tetrahydropyrazino[1,2-d]pyrimido[4′,5′:5,6]pyrido[3,2-b][1,4]oxazin-3(4H)-yl)prop-2-en-1-one] | 5.77 | 1.6 | 84.7
Cc1cc(Nc2ncnc3cnc4c(c23)O[C@@H]2CCN(C)C[C@H]2N4C)ccc1Oc1ccc2c(c1)ncn2C [Compound 133, (7aR,11aR)-7,9-dimethyl-N-(3-methyl-4-((1-methyl-1H-benzo[d]imidazol-5-yl)oxy)phenyl)-7a,8,9,10,11,11a-hexahydro-7H-pyrido[4,3-b]pyrimido[5′,4′:4,5]pyrido[2,3-e][1,4]oxazin-1-amine] | 41.9 | 60.1 | > 10000
CN(C)C/C=C/C(=O)N1CCN2c3ccc4ncnc(Nc5cc(F)c(Oc6ccn7ncnc7c6)cc5F)c4c3OC[C@H]2C1 [Compound 97, (R,E)-1-(4-((4-([1,2,4]triazolo[1,5-a]pyridin-7-yloxy)-2,5-difluorophenyl)amino)-6a,7,9,10-tetrahydropyrazino[1′,2′:4,5][1,4]oxazino[2,3-f]quinazolin-8(6H)-yl)-4-(dimethylamino)but-2-en-1-one] | 15.2 | 3.6 | 8060
CN(C)C/C=C/C(=O)N1CCN2c3ccc4ncnc(Nc5ccc(Oc6ccn7ncnc7c6)c(F)c5)c4c3OC[C@@H]2C1 [Compound 94, (S,E)-1-(4-((4-([1,2,4]triazolo[1,5-a]pyridin-7-yloxy)-3-fluorophenyl)amino)-6a,7,9,10-tetrahydropyrazino[1′,2′:4,5][1,4]oxazino[2,3-f]quinazolin-8(6H)-yl)-4-(dimethylamino)but-2-en-1-one] | 19.6 | 19.9 | 2160
Cc1cc(Nc2ncnc3cnc4c(c23)OC[C@H]2CN(C(=O)/C=C/CN(C)C)CCN42)ccc1Oc1ccn2ncnc2c1 [Compound 113, (R,E)-1-(4-((4-([1,2,4]triazolo[1,5-a]pyridin-7-yloxy)-3-methylphenyl)amino)-6a,7,9,10-tetrahydropyrazino[1,2-d]pyrimido[5′,4′:4,5]pyrido[3,2-b][1,4]oxazin-8(6H)-yl)-4-(dimethylamino)but-2-en-1-one] | 11.3 | 3.57 | 593
C=CC(=O)N1CCN2C[C@H]1COc1c2ccc2ncnc(Nc3ccc(Oc4ccn5ncnc5c4)c(C)c3)c12 [Compound 24, 1-((3S)-13-((4-([1,2,4]triazolo[1,5-a]pyridin-7-yloxy)-3-methylphenyl)amino)-2,3,5,6-tetrahydro-4H-3,7-methano[1,4,7]oxadiazonino[2,3-f]quinazolin-4-yl)prop-2-en-1-one] | 430 | > 500 | > 10000
CC#CC(=O)N1CCN2c3cc4c(Nc5ccc(Oc6ccn7ncnc7c6)c(C)c5)ncnc4cc3OC[C@@H]2C1 [Compound 13, (S)-1-(11-((4-([1,2,4]triazolo[1,5-a]pyridin-7-yloxy)-3-methylphenyl)amino)-1,2,4a,5-tetrahydropyrazino[1′,2′:4,5][1,4]oxazino[3,2-g]quinazolin-3(4H)-yl)but-2-yn-1-one] | 13 | 6.24 | 254
Cc1cc(Nc2ncnc3cc4c(nc23)N2CCN(C)C[C@H]2CO4)ccc1Oc1cc2ncn(C)c2cn1 [Compound 127, (S)-3-methyl-N-(3-methyl-4-((3-methyl-3H-imidazo[4,5-c]pyridin-6-yl)oxy)phenyl)-1,2,3,4,4a,5-hexahydropyrazino[1,2-d]pyrimido[4′,5′:5,6]pyrido[3,2-b][1,4]oxazin-11-amine] | 828 | > 500 | > 10000
Cc1cc(Nc2ncnc3ccc4c(c23)OC[C@@H]2CN(C(=O)/C=C/CN(C)C)CCN42)ccc1Oc1ccc2c(c1)ncn2C [Compound 23, (S,E)-4-(dimethylamino)-1-(4-((3-methyl-4-((1-methyl-1H-benzo[d]imidazol-5-yl)oxy)phenyl)amino)-6a,7,9,10-tetrahydropyrazino[1′,2′:4,5][1,4]oxazino[2,3-f]quinazolin-8(6H)-yl)but-2-en-1-one] | 27.4 | 13.8 | 817
Cc1cc(Nc2ncnc3ccc4c(c23)OC[C@H]2CN(C(=O)/C=C/CN(C)C)CCN42)ccc1Oc1ccc2c(c1)ncn2C [Compound 22, (R,E)-4-(dimethylamino)-1-(4-((3-methyl-4-((1-methyl-1H-benzo[d]imidazol-5-yl)oxy)phenyl)amino)-6a,7,9,10-tetrahydropyrazino[1′,2′:4,5][1,4]oxazino[2,3-f]quinazolin-8(6H)-yl)but-2-en-1-one] | 22.8 | 2.12 | 544
C=CC(=O)N1CCN2c3ccc4ncnc(Nc5ccc(Oc6ccc7c(c6)ncn7C)c(C)c5)c4c3OC[C@@H]2C1 [Compound 21, (S)-1-(4-((3-methyl-4-((1-methyl-1H-benzo[d]imidazol-5-yl)oxy)phenyl)amino)-6a,7,9,10-tetrahydropyrazino[1′,2′:4,5][1,4]oxazino[2,3-f]quinazolin-8(6H)-yl)prop-2-en-1-one] | 22.7 | 16.2 | 575
Cc1cc(Nc2ncnc3ccc4c(c23)OC[C@H]2CN(C(=O)/C=C/CN(C)C)CCN42)ccc1Oc1ccn2ncnc2c1 [Compound 18, (R,E)-1-(4-((4-([1,2,4]triazolo[1,5-a]pyridin-7-yloxy)-3-methylphenyl)amino)-6a,7,9,10-tetrahydropyrazino[1′,2′:4,5][1,4]oxazino[2,3-f]quinazolin-8(6H)-yl)-4-(dimethylamino)but-2-en-1-one] | 240 | 223 | > 10000
Cc1cc(Nc2ncnc3ccc4c(c23)OC[C@@H]2CN(C(=O)/C=C/CN(C)C)CCN42)ccc1Oc1ccn2ncnc2c1 [Compound 19, (S,E)-1-(4-((4-([1,2,4]triazolo[1,5-a]pyridin-7-yloxy)-3-methylphenyl)amino)-6a,7,9,10-tetrahydropyrazino[1′,2′:4,5][1,4]oxazino[2,3-f]quinazolin-8(6H)-yl)-4-(dimethylamino)but-2-en-1-one formate] | 11.1 | 5 | 679
CN(C)C/C=C/C(=O)N1CCN2c3ccc4ncnc(Nc5ccc(Oc6ccn7ncnc7c6)c(F)c5)c4c3OC[C@H]2C1 [Compound 118, (R,E)-1-(4-((4-([1,2,4]triazolo[1,5-a]pyridin-7-yloxy)-3-fluorophenyl)amino)-6a,7,9,10-tetrahydropyrazino[1′,2′:4,5][1,4]oxazino[2,3-f]quinazolin-8(6H)-yl)-4-(dimethylamino)but-2-en-1-one] | 25 | 35.7 | 3120
Cc1cc(Nc2ncnc3ccc4c(c23)O[C@@H]2CCNC[C@@H]2N4C)ccc1Oc1ccc2c(c1)ncn2C [Compound 134, (7aS,11aR)-7-methyl-N-(3-methyl-4-((1-methyl-1H-benzo[d]imidazol-5-yl)oxy)phenyl)-7a,8,9,10,11,11a-hexahydro-7H-pyrido[3′,4′:5,6][1,4]oxazino[2,3-f]quinazolin-1-amine] | 113 | > 500 | 727
Cc1cc(Nc2ncnc3cnc4c(c23)OC[C@H]2COCCN42)ccc1Oc1ccc2c(c1)ncn2C [Compound 122, (R)—N-(3-methyl-4-((1-methyl-1H-benzo[d]imidazol-5-yl)oxy)phenyl)-6a,7,9,10-tetrahydro-6H-[1,4]oxazino[4,3-d]pyrimido[5′,4′:4,5]pyrido[3,2-b][1,4]oxazin-4-amine] | 26.4 | 30.9 | > 10000
C=CC(=O)N1CCN2C[C@@H]1COc1c2ccc2ncnc(Nc3ccc(Oc4ccc5c(c4)ncn5C)c(C)c3)c12 [Compound 29, 1-((3R)-13-((3-methyl-4-((1-methyl-1H-benzo[d]imidazol-5-yl)oxy)phenyl)amino)-2,3,5,6-tetrahydro-4H-3,7-methano[1,4,7]oxadiazonino[2,3-f]quinazolin-4-yl)prop-2-en-1-one] | 30.7 | 23.9 | 2930
